Results as given in US20100240598A1, “PEPTIDES AND PEPTIDE MIMETICS TO INHIBIT THE ONSET AND/OR PROGRESSION OF FIBROTIC AND/OR PRE-FIBROTIC PATHOLOGIES” (THE REGENTS OF THE UNIVERSITY OF CALIFORNIA, priority 2009, published 2010).
“Also recorded” adds a separate entry of the source. Where two headings read alike, the source gives them in different places.

How the values were obtained:
ApoE null mice [1] = assay: HDL function after D-4F and/or statin in drinking water for 24 hours; format: in vivo
human LDL = assay: Treating human LDL in vitro, removal of seeding molecules; format: biochemical
Description: (§1) We discovered that normal HDL inhibits three steps in the formation of mildly oxidized LDL. […] These seeding molecules were required for cocultures of human artery wall cells to be able to oxidize LDL and for the LDL to induce the artery wall cells to produce monocyte chemotactic activity.

human volunteers = assay: LDL oxidation resistance after infusion of apo A-I into humans; format: in vivo
Description: as §1

mice = assay: LDL oxidation resistance after injection of apo A-I into mice; format: in vivo
Description: as §1

[2] = test system: mice fed an atherogenic diet; settings: 20 μg daily; cited from earlier work
ApoE null mice [3] = assay: HDL Inflammatory Index after D-4F or Reverse D-4F by stomach tube; format: in vivo; settings: 0, 3, 6, 12 or 25 micrograms by stomach tube, blood 7 hours later
Procedure: Female apoE null mice were administered by stomach tube 0, 3, 6, 12, or 25 micrograms of D-4F or Reverse D-4F in 100 microliters of water. Blood was obtained 7 hours later and the plasma was fractionated by FPLC. A standard control human LDL was added to human artery wall cells at a concentration of 100 micrograms of LDL-cholesterol/mL (LDL). The resulting monocyte chemotactic activity was normalized to 1.0. The same LDL at the same concentration was added to the human artery wall cells together with HDL at 50 micrograms HDL-cholesterol/mL from a normal human (hHDL) or from the apoE null mice that received the dose of D-4F or Reverse D-4F shown on the X-axis. The resulting monocyte chemotactic activity was normalized to that of the LDL added without HDL. The resulting value is the HDL Inflammatory Index. The results shown are the Mean±S.D. for the data from three separate experiments.

ApoE null mice [4] = assay: Ability of LDL from apoE null mice given oral peptides to induce monocyte chemotactic activity (LDL susceptibility to oxidation); format: in vivo; settings: added to the drinking water, 24 hrs
Procedure: FIG. 5 illustrates the effect of oral apo A-1 peptide mimetic and apoJ peptide on LDL susceptibility to oxidation. […] After 24 hrs blood was collected from the mice shown in FIG. 4, plasma fractionated by FPLC and fractions containing LDL (designated as mLDL for murine LDL) were pooled and LDL susceptibility to oxidation as determined by induction of monocyte chemotactic activity was determined. For the assay controls the culture wells received no lipoproteins (no additions), mLDL alone (at 200 μg cholesterol/ml), or mLDL+standard normal human HDL (designated as Cont. h HDL, 350 μg HDL cholesterol).
Murine LDL, mLDL, from mice that received the D-4F (F mLDL) or those that received the apoJ peptide (J mLDL) were added to artery wall cell cultures.

[5] = test system: Human aortic endothelial cells; assay: Prevention of LDL-induced monocyte chemotactic activity in vitro, co-incubation; format: cell-based; settings: co-incubation with control human LDL 200 μg protein/ml, overnight
Procedure: FIG. 1 illustrates a comparison of the effect of […] et al. (2002) Circulation, 105: 290-292) with the effect of an apoJ peptide made from D amino acids (D-J336, […], SEQ ID NO:999)) on the prevention of LDL-induced monocyte chemotactic activity in vitro in a co-incubation. […] D-J336 or D-4F was added to other wells in a concentration range as indicated plus control human LDL (200 μg protein/ml). Following overnight incubation, the supernatants were assayed for monocyte chemotactic activity.

LDL receptor null mice = assay: HDL protective capacity in LDL receptor null mice given peptide in drinking water; format: in vivo; settings: 0.25 or 0.5 mg per ml drinking water, 24 or 48 hrs; mouse HDL at 100 μg/ml
Procedure: D-4F designated as F, or the apoJ peptide made from D amino acids (D-J336, designated as J) was added to the drinking water of LDL receptor null mice (4 per group) at 0.25 or 0.5 mg per ml of drinking water. After 24- or 48-hrs blood was collected from the mice and their HDL was isolated and tested for its ability to protect against LDL-induced monocyte chemotactic activity. Assay controls included culture wells that received no lipoproteins (no addition), or control human LDL alone (designated as LDL, 200 μg cholesterol/ml), or control LDL+control human HDL (designated as +HDL, 350 μg HDL cholesterol). For testing the mouse HDL, the control LDL was added together with mouse HDL (+F HDL or +J HDL) to artery wall cell cultures. The mouse HDL was added at 100 μg cholesterol/ml respectively.

ApoE null mice [6] = assay: HDL protective capacity against PAPC oxidation by HPODE, HDL from apo E null mice given oral peptides; format: in vivo; settings: added to the drinking water, 24 hrs; murine HDL 100 μg cholesterol/ml
Procedure: After 24 hrs blood was collected, plasma fractionated by FPLC and fractions containing HDL (designated as mHDL) were pooled and HDL protective capacity against PAPC oxidation as determined by the induction of monocyte chemotactic activity was determined. For the assay controls the culture wells received no lipoproteins (no additions), the phospholipid PAPC at 20 μg/ml+HPODE, at 1.0 μg/ml, or PAPC+HPODE plus standard normal human HDL (at 350 μg HDL cholesterol/ml and designated as +Cont. h HDL).
For testing the murine HDL, PAPC+HPODE together with murine HDL (+F mHDL or +J mHDL) were added to artery wall cell cultures. […] The murine HDL was used at 100 μg cholesterol/ml.

ApoE null mice [7] = assay: Protection against LDL-induced monocyte chemotactic activity by HDL from apo E null mice given oral peptides; format: in vivo; settings: for activity of murine HDL against LDL-induced monocyte chemotactic activity: drinking water, 24 hrs, murine HDL at 100 μg/ml
Procedure: After 24 hrs blood was collected, plasma fractionated by FPLC and fractions containing LDL (designated as mLDL for murine LDL) and fractions containing HDL (designated as mHDL) were separately pooled and HDL protective capacity against LDL oxidation as determined by LDL-induced monocyte chemotactic activity was determined. For the assay controls the culture wells received no lipoproteins (no additions), mLDL alone (at 200 μg cholesterol/ml), or mLDL+standard normal human HDL (designated as Cont. h HDL, at 350 μg HDL cholesterol/ml).
For testing the murine HDL, mLDL together with murine HDL (+F mHDL or +J mHDL) were added to artery wall cell cultures. […] The murine HDL was used at 100 μg cholesterol/ml.

PON1 = settings: added to the drinking water, 24 hrs
Procedure: After 24 hrs blood was collected and plasma was assayed for PON1 activity.

[8] = test system: Human aortic endothelial cells; assay: Prevention of LDL-induced monocyte chemotactic activity by pre-treatment (pre-incubation) of artery wall cells; format: cell-based; settings: 6 hrs pre-incubation, then control human LDL 200 μg protein/ml
Procedure: FIG. 2 illustrates a comparison of the effect of D-4F with the effect of D-J336 on the prevention of LDL induced monocyte chemotactic activity in a pre-incubation. Human aortic endothelial cells were pre-incubated with D-J336 or D-4F at 4, 2, and 1 μg/ml for DJ336 or 100, 50, 25, and 12.5 μg/ml for D-4F for 6 hrs. The cultures were then washed and were incubated with medium alone (no addition), or with control human LDL (200 μg protein/ml), or with control human LDL+control human HDL (350 μg HDL protein/ml) as assay controls. The wells that were pre-treated with peptides received the control human LDL at 200 μg protein/ml. Following overnight incubation, the supernatants were assayed for monocyte chemotactic activity.

[9] = Association with pre-beta HDL/HDL and clearance from the circulation after an oral dose
ApoE null mice [10] = assay: Trabecular bone mineral density after D-4F in drinking water; format: in vivo; settings: drinking water for 6 weeks
ApoE null mice [11] = assay: HDL and pre-beta HDL inhibition of LDL-induced monocyte chemotaxis after feeding solution-phase synthesized D-4F; format: in vivo; settings: 5 micrograms fed, bled twelve hours after feeding was started
Description: ApoE null mice were fed 5 micrograms of the D-4F synthesized as described above (Frgmnt) or the mice were given the same amount of mouse chow without D-4F (Chow). Twelve hours after the feeding was started, the mice were bled and their plasma was fractionated on FPLC.

[12] = mouse, in vivo, po
Obese Zucker rats = assay: Plasma glucose and lipid hydroperoxides in obese Zucker rats given D-4F; format: in vivo; settings: 5.0 mg/kg/day intraperitoneal, 10 days, rats 26 weeks of age
Procedure: Obese Zucker rats 26 weeks of age were bled and then treated with daily intraperitoneal injections of D-4F (5.0 mg/kg/day). After 10 days the rats were bled again plasma glucose and lipid hydroperoxides (LOOH) were determined. *p=0.027; ** p=0.0017.

With `CC(C)c1c(C(=O)Nc2ccccc2)c(-c2ccccc2)c(-c2ccc(F)cc2)n1CC[C@@H](O)C[C@@H](O)CC(=O)O` [atorvastatin, reference compound] the “HDL function, statin alone” value (ApoE null mice [1]; 0.05 mg/ml in drinking water for 24 hours) was “did not improve HDL function”.

For “apo A-I: the major protein of HDL, apolipoprotein A-I”, the “effect on seeding molecules (HPODE, HPETE) of human LDL” value (human LDL) was “removed seeding molecules from the LDL”, the “oxidation of LDL isolated after infusion, by human artery wall cells” value (human volunteers) was “resistant to oxidation by human artery wall cells” and the “oxidation of LDL isolated after injection, by human artery wall cells” value (mice) was “resistant to oxidation by human artery wall cells”.

In the case of “Ac-D-W-L-K-A-F-Y-D-K-V-F-E-K-F-K-E-F-F-NH2 (Ac-DWLKAFYDKVFEKFKEFF-NH2) [Peptide 5F]”, the “LDL oxidation and induction of monocyte chemotactic activity, PBS-injected versus peptide-injected mice” value [2] is given as “more readily oxidized and more readily induced monocyte chemotactic activity”.

In the case of “Ac-FAEKFKEAVKDYFAKFWD-NH2 [Reverse D-4F]”, the “biological activity (HDL Inflammatory Index), D-4F versus Reverse D-4F” value (ApoE null mice [3]) was “not significantly different”.

With Ac-LLEQLNEQFNWVSRLANLTQGE-NH2 [D-J336] the “potency in rendering LDL resistant to oxidation by human artery wall cells compared with D-4F” value (ApoE null mice [4]) was “slightly more potent than D-4F”, the “in vitro concentration that prevents LDL-induced monocyte chemotactic activity, relative to the concentration required for D-4F” value [5] was 10 to 25 times less and the “activity of mouse HDL in preventing control LDL from inducing monocyte chemotactic activity” value (LDL receptor null mice) was “as active as 350 μg/ml of control human HDL”. For the same compound, the “potency in causing HDL to inhibit oxidation of PAPC by HPODE compared with D-4F” value (ApoE null mice [6]) was “as potent as D-4F”, the “potency in enhancing HDL protective capacity compared with D-4F” value (ApoE null mice [7]; added to the drinking water, apo E null mice) was “as potent as D-4F” and the “activity of murine HDL against LDL-induced monocyte chemotactic activity” value (ApoE null mice [7]) was “as active as 350 μg/ml of normal human HDL”. The “potency in increasing paraoxonase activity compared with D-4F” value (PON1) was “at least as potent as D-4F” and the “potency in preventing LDL oxidation by artery wall cells in vitro relative to D-4F” value [8] was 10-25 times more potent.

In the case of “Ac-L V G R Q L E E F L-NH2 [D-[113-122]apoJ]”, the “association with pre-beta HDL and HDL” value ([9]; after an oral dose) was “slowly associates with pre-beta HDL and to a lesser extent with HDL” and the “time remaining associated with HDL fractions” value ([9]; mouse, in vivo) was “at least 36 hours”.

For “Ac-DWFKAFYDKVAEKFKEAF-NH2 [Peptide D-4F]”, the “trabecular bone mineral density” value (ApoE null mice [10]) was “dramatically increased”, the “activity of mouse HDL in preventing control LDL from inducing monocyte chemotactic activity” value (LDL receptor null mice) was “as active as 350 μg/ml of control human HDL” and the “biological activity (HDL Inflammatory Index), D-4F versus Reverse D-4F” value (ApoE null mice [3]) was “not significantly different”. For the same compound, the “HDL function, D-4F alone” value (ApoE null mice [1]; 1 μg/ml in drinking water for 24 hours) was “did not significantly improve HDL function; also recorded: no effect on HDL function”, the “HDL function, D-4F together with statin” value (ApoE null mice [1]; D-4F 1 μg/ml together with 0.05 mg/ml of atorvastatin or pravastatin in drinking water) was “significant improvement in HDL function” and the “anti-inflammatory activity of apoE null HDL compared with normal human HDL, D-4F together with statin” value (ApoE null mice [1]; mouse HDL at 50 μg/ml of HDL-cholesterol, HPODE oxidizing PAPC in cocultures of human artery wall cells) was “as anti-inflammatory as 350 μg/ml of normal human HDL; also recorded: as effective as normal human HDL at 350 μg/ml of HDL-cholesterol”. The “activity of murine HDL against LDL-induced monocyte chemotactic activity” value (ApoE null mice [7]) was “as active as 350 μg/ml of normal human HDL”, the “biological activity in producing HDL and pre-beta HDL that inhibit LDL-induced monocyte chemotaxis” value (ApoE null mice [11]) was “very biologically active” and the “association with pre-beta HDL and HDL” value [12] was “rapidly associates with pre-beta HDL and HDL”. The “detectability in the circulation” value [12] was “essentially non-detectable” and the “symptoms of diabetes (blood glucose, lipid hydroperoxides)” value (Obese Zucker rats) was “effective in mitigating symptoms of diabetes”.
